MIC data for five compounds are collected here from ChEMBL document CHEMBL1132901, “Synthesis and structure-activity relationships of quaternary ammonium cephalosporins with 3-pyrazolylpyridinium derivatives” (2000).

A word on the MIC: it is the lowest concentration that inhibits growth of the organism. Higher therefore signals a less susceptible organism.

Converted amounts (≈) assume the structure as drawn.

For test [1], the system named is Enterobacter cloacae. Briefly: In vitro antimicrobial activity against Enterobacter 1321 E. The test is classed as functional.
Test [2] has as its system Escherichia coli. Briefly: In vitro antimicrobial activity against Escherichia coli 055. The class given is functional.
The subject of test [3] is Escherichia coli. Briefly: In vitro antimicrobial activity against Escherichia coli 1507E. The test is classed as functional.
The subject of test [4] is Escherichia coli. Briefly: In vitro antimicrobial activity against Escherichia coli DC 0. The class given is functional.
Test [5] concerns Escherichia coli. The test is described as follows: In vitro antimicrobial activity against Escherichia coli DC 2. The class given is functional.
The subject of test [6] is Escherichia coli. The test is described as follows: In vitro antimicrobial activity against Escherichia coli TEM. The class given is functional.
The subject of test [7] is Enterobacter cloacae. Briefly: In vitro antimicrobial activity against Enterobacter cloacae P99. The test is classed as functional.
The test system of another test is Klebsiella oxytoca. The test is described as follows: In vitro antimicrobial activity against Klebsiella oxytoca 1082. The class given is functional.
Another test concerns Klebsiella aerogenes. Briefly: In vitro antimicrobial activity against Klebsiella aerogenes 1522 E. The test is classed as functional.
In test [8] the test system is Pseudomonas aeruginosa. Briefly: In vitro antimicrobial activity against Pseudomonas aeruginosa 1771. The class given is functional.
Test [9] concerns Pseudomonas aeruginosa. The test is described as follows: In vitro antimicrobial activity against Pseudomonas aeruginosa 1771 M. The test is classed as functional.
The test system of test [10] is Pseudomonas aeruginosa. Briefly: In vitro antimicrobial activity against Pseudomonas aeruginosa 9027. The test is classed as functional.
In a further test the test system is Salmonella typhimurium. Briefly: In vitro antimicrobial activity against Salmonella Typhimurium. The test is classed as functional, Salmonella enterica subsp. enterica serovar Typhimurium. The following applies: Salmonella enterica.
Test [11] has as its system Streptococcus pyogenes. Briefly: In vitro antimicrobial activity against Streptococcus pyogenes 77A. The class given is functional.
Test [12] concerns Streptococcus pyogenes. The test is described as follows: In vitro antimicrobial activity against Streptococcus pyogenes A 308. The class given is functional.
In test [13] the test system is Streptococcus pyogenes. Briefly: In vitro antimicrobial activity against Streptococcus pyogenes SG 511. The test is classed as functional.
In test [14] the test system is Staphylococcus aureus. Briefly: In vitro antimicrobial activity against Methicillin resistant Staphylococcus aureus (MRSA). The test is classed as functional.
Test [15] concerns Staphylococcus aureus. Briefly: In vitro antimicrobial activity against Staphylococcus aureus 285. The test is classed as functional.
Test [16] concerns Staphylococcus aureus. The test is described as follows: In vitro antimicrobial activity against Staphylococcus aureus 503. The class given is functional.
For a further test, the system named is Enterococcus faecium. The test is described as follows: In vitro antimicrobial activity against Streptococcus faecium MD 8b. The test is classed as functional.
The test system of test [17] is Pseudomonas aeruginosa. Briefly: In vitro antimicrobial activity against Pseudomonas aeruginosa 1592 E. The class given is functional.

As for `CO/N=C(/C(=O)N[C@@H]1C(=O)N2C(C(=O)[O-])=C(C[n+]3cccc(-c4cc(CO)nn4CCO)c3)CS[C@H]12)c1csc(N)n1`, the MIC came to 0.098 µg/mL (≈ 0.159 µM) in the test with Enterobacter cloacae [1]; 0.098 µg/mL (≈ 0.159 µM) in the test with Escherichia coli [2]; 0.391 µg/mL (≈ 0.636 µM) against Escherichia coli [3]; 0.195 µg/mL (≈ 0.317 µM) against Escherichia coli [4]; 0.098 µg/mL (≈ 0.159 µM) against Escherichia coli [5]; 0.781 µg/mL (≈ 1.27 µM) in the test with Escherichia coli [6]. The MIC is > 50 µg/mL against Enterobacter cloacae [7]; 12.5 µg/mL (≈ 20.3 µM) against Klebsiella oxytoca; 0.195 µg/mL (≈ 0.317 µM) in the test on Klebsiella aerogenes; 6.25 µg/mL (≈ 10.2 µM) against Pseudomonas aeruginosa [8]; 0.781 µg/mL (≈ 1.27 µM) against Pseudomonas aeruginosa [9]; 25 µg/mL (≈ 40.7 µM) against Pseudomonas aeruginosa [10]. Also, the MIC in the test on Salmonella typhimurium turned out to be 0.391 µg/mL (≈ 0.636 µM); against Streptococcus pyogenes [11] it was 0.049 µg/mL (≈ 0.0797 µM); with Streptococcus pyogenes [12] it was 0.049 µg/mL (≈ 0.0797 µM); against Streptococcus pyogenes [13], 6.25 µg/mL (≈ 10.2 µM); in the test on Staphylococcus aureus [14], 25 µg/mL (≈ 40.7 µM); in the test with Staphylococcus aureus [15], 6.25 µg/mL (≈ 10.2 µM). Besides, the results for the MIC against Staphylococcus aureus [16], against Enterococcus faecium and in the test with Pseudomonas aeruginosa [17] were 1.56 µg/mL (≈ 2.54 µM), 12.5 µg/mL (≈ 20.3 µM) and 12.5 µg/mL (≈ 20.3 µM), respectively.

On to `CO/N=C(/C(=O)N[C@@H]1C(=O)N2C(C(=O)[O-])=C(C[n+]3cccc(-c4cc(CO)[nH]n4)c3)CS[C@H]12)c1csc(N)n1`, for which the MIC is 0.049 µg/mL (≈ 0.0859 µM) against Enterobacter cloacae [1]; 0.049 µg/mL (≈ 0.0859 µM) in the test with Escherichia coli [2]; 0.098 µg/mL (≈ 0.172 µM) in the test on Escherichia coli [3]; 0.049 µg/mL (≈ 0.0859 µM) in the test on Escherichia coli [4]; 0.025 µg/mL (≈ 0.0438 µM) in the test on Escherichia coli [5]; 0.195 µg/mL (≈ 0.342 µM) in the test on Escherichia coli [6]. In addition, the MIC in the test on Enterobacter cloacae [7] was > 12.5 µg/mL; in the test with Klebsiella oxytoca it was 3.12 µg/mL (≈ 5.48 µM); in the test with Klebsiella aerogenes it was 0.049 µg/mL (≈ 0.0859 µM); against Pseudomonas aeruginosa [8], 1.56 µg/mL (≈ 2.74 µM); in the test with Pseudomonas aeruginosa [9], 0.391 µg/mL (≈ 0.685 µM); against Pseudomonas aeruginosa [10], 6.25 µg/mL (≈ 11 µM). For the same compound, the MIC was 0.098 µg/mL (≈ 0.172 µM) in the test with Salmonella typhimurium; 0.013 µg/mL (≈ 0.0228 µM) in the test with Streptococcus pyogenes [11]; 0.025 µg/mL (≈ 0.0438 µM) in the test with Streptococcus pyogenes [12]; 1.56 µg/mL (≈ 2.74 µM) with Streptococcus pyogenes [13]; 1.56 µg/mL (≈ 2.74 µM) in the test on Staphylococcus aureus [15]; 0.391 µg/mL (≈ 0.685 µM) against Staphylococcus aureus [16]. Further, the MIC against Enterococcus faecium and in the test with Pseudomonas aeruginosa [17] was 3.12 µg/mL (≈ 5.48 µM) throughout.

As to `CO/N=C(/C(=O)N[C@@H]1C(=O)N2C(C(=O)[O-])=C(C[n+]3cccc(-c4cc[nH]n4)c3)CS[C@H]12)c1csc(N)n1`, the MIC against Enterobacter cloacae [1] is 0.098 µg/mL (≈ 0.181 µM); in the test with Escherichia coli [2], 0.049 µg/mL (≈ 0.0906 µM); with Escherichia coli [3], 0.195 µg/mL (≈ 0.361 µM); against Escherichia coli [4], 0.098 µg/mL (≈ 0.181 µM); in the test on Escherichia coli [5] it was 0.049 µg/mL (≈ 0.0906 µM); against Escherichia coli [6], 0.195 µg/mL (≈ 0.361 µM). Besides, the MIC is > 25 µg/mL in the test on Enterobacter cloacae [7]; 6.25 µg/mL (≈ 11.6 µM) against Klebsiella oxytoca; 0.098 µg/mL (≈ 0.181 µM) against Klebsiella aerogenes; 6.25 µg/mL (≈ 11.6 µM) against Pseudomonas aeruginosa [8]; 3.12 µg/mL (≈ 5.78 µM) in the test on Pseudomonas aeruginosa [9]; 25 µg/mL (≈ 46.2 µM) in the test with Pseudomonas aeruginosa [10]. For the same compound, the minimum inhibitory concentration (MIC) against Salmonella typhimurium turned out to be 0.195 µg/mL (≈ 0.361 µM); against Streptococcus pyogenes [11], 0.025 µg/mL (≈ 0.0462 µM); with Streptococcus pyogenes [12], 0.049 µg/mL (≈ 0.0906 µM); with Streptococcus pyogenes [13], 3.12 µg/mL (≈ 5.78 µM); with Staphylococcus aureus [15] it was 3.12 µg/mL (≈ 5.78 µM); with Staphylococcus aureus [16], 0.781 µg/mL (≈ 1.44 µM). Moreover, the MIC against Enterococcus faecium is 6.25 µg/mL (≈ 11.6 µM); with Pseudomonas aeruginosa [17], 12.5 µg/mL (≈ 23.1 µM).

For the compound `CO/N=C(/C(=O)N[C@@H]1C(=O)N2C(C(=O)[O-])=C(C[n+]3cccc(-c4cc(C)[nH]n4)c3)CS[C@H]12)c1csc(N)n1`, the minimal inhibitory concentration (MIC) against Enterobacter cloacae [1] turned out to be 0.013 µg/mL (≈ 0.0234 µM); in the test with Escherichia coli [2], 0.025 µg/mL (≈ 0.0451 µM); against Escherichia coli [3], 0.098 µg/mL (≈ 0.177 µM); in the test on Escherichia coli [4] it was 0.025 µg/mL (≈ 0.0451 µM); in the test with Escherichia coli [5], 0.013 µg/mL (≈ 0.0234 µM); in the test with Escherichia coli [6] it was 0.098 µg/mL (≈ 0.177 µM). In addition, the MIC with Enterobacter cloacae [7] came to 50 µg/mL (≈ 90.2 µM); in the test with Klebsiella oxytoca it was 1.56 µg/mL (≈ 2.82 µM); with Klebsiella aerogenes, 0.049 µg/mL (≈ 0.0883 µM); in the test on Pseudomonas aeruginosa [8], 1.56 µg/mL (≈ 2.82 µM); against Pseudomonas aeruginosa [9], 0.781 µg/mL (≈ 1.41 µM); in the test with Pseudomonas aeruginosa [10] it was 6.25 µg/mL (≈ 11.3 µM). In addition, the minimal inhibitory concentration (MIC) worked out at 0.098 µg/mL (≈ 0.177 µM) in the test on Salmonella typhimurium; 0.007 µg/mL (≈ 0.0126 µM) in the test with Streptococcus pyogenes [11]; 0.007 µg/mL (≈ 0.0126 µM) in the test with Streptococcus pyogenes [12]; 0.781 µg/mL (≈ 1.41 µM) in the test with Streptococcus pyogenes [13]; 25 µg/mL (≈ 45.1 µM) against Staphylococcus aureus [14]; 0.781 µg/mL (≈ 1.41 µM) against Staphylococcus aureus [15]. The MIC in the test with Staphylococcus aureus [16] came to 0.195 µg/mL (≈ 0.352 µM); in the test on Enterococcus faecium it was 3.12 µg/mL (≈ 5.63 µM); in the test on Pseudomonas aeruginosa [17], 3.12 µg/mL (≈ 5.63 µM).

In the case of `CO/N=C(/C(=O)N[C@@H]1C(=O)N2C(C(=O)[O-])=C(C[n+]3cccc(-c4cc(CO)nn4C)c3)CS[C@H]12)c1csc(N)n1`, the minimal inhibitory concentration (MIC) came to 0.049 µg/mL (≈ 0.0838 µM) with Enterobacter cloacae [1]; 0.049 µg/mL (≈ 0.0838 µM) in the test on Escherichia coli [2]; 0.098 µg/mL (≈ 0.168 µM) against Escherichia coli [3]; 0.049 µg/mL (≈ 0.0838 µM) against Escherichia coli [4]; 0.049 µg/mL (≈ 0.0838 µM) against Escherichia coli [5]; 0.195 µg/mL (≈ 0.334 µM) with Escherichia coli [6]. For the same compound, the MIC is > 25 µg/mL against Enterobacter cloacae [7]; 6.25 µg/mL (≈ 10.7 µM) in the test on Klebsiella oxytoca; 0.098 µg/mL (≈ 0.168 µM) with Klebsiella aerogenes; 3.12 µg/mL (≈ 5.35 µM) against Pseudomonas aeruginosa [8]; 0.391 µg/mL (≈ 0.669 µM) in the test on Pseudomonas aeruginosa [9]; 25 µg/mL (≈ 42.8 µM) with Pseudomonas aeruginosa [10]. In addition, the MIC was found to be 0.195 µg/mL (≈ 0.334 µM) against Salmonella typhimurium; 0.025 µg/mL (≈ 0.0428 µM) against Streptococcus pyogenes [11]; 0.049 µg/mL (≈ 0.0838 µM) against Streptococcus pyogenes [12]; 3.12 µg/mL (≈ 5.35 µM) in the test on Streptococcus pyogenes [13]; 3.12 µg/mL (≈ 5.35 µM) against Staphylococcus aureus [15]; 0.781 µg/mL (≈ 1.34 µM) in the test on Staphylococcus aureus [16]. For the same compound, the minimum inhibitory concentration (MIC) with Enterococcus faecium is 6.25 µg/mL (≈ 10.7 µM); against Pseudomonas aeruginosa [17] it was 12.5 µg/mL (≈ 21.4 µM).
